Results published in ChEMBL document CHEMBL1147101, “Development and persistence of antimicrobial resistance in Pseudomonas aeruginosa: a longitudinal observation in mechanically ventilated patients” (Antimicrob Agents Chemother, 2007).
Calls of active or inactive are those of the source. The rule behind the calls is not given here.

Key:
Type in all cases: functional, organism-based
Conditions in all cases: Trachea
Pseudomonas aeruginosa [1] = experiment: Antimicrobial activity against Pseudomonas aeruginosa 19D9 tracheal isolates from mechanically ventilated chronic respiratory insufficiency patient
Pseudomonas aeruginosa [2] = experiment: Antimicrobial activity against Pseudomonas aeruginosa P21.21 tracheal isolates from mechanically ventilated tuberculosis patient
Pseudomonas aeruginosa [3] = experiment: Antimicrobial activity against Pseudomonas aeruginosa 65.33-2 tracheal isolates from mechanically ventilated tuberculosis patient
Pseudomonas aeruginosa [4] = experiment: Antimicrobial activity against Pseudomonas aeruginosa 13E1 tracheal isolates from mechanically ventilated chronic respiratory insufficiency patient
Pseudomonas aeruginosa [5] = experiment: Antimicrobial activity against Pseudomonas aeruginosa 8A2 tracheal isolates from mechanically ventilated chronic respiratory insufficiency patient
Pseudomonas aeruginosa [6] = experiment: Antimicrobial activity against Pseudomonas aeruginosa 3D10 tracheal isolates from mechanically ventilated chronic respiratory insufficiency patient
Pseudomonas aeruginosa [7] = experiment: Antimicrobial activity against Pseudomonas aeruginosa 19C7 tracheal isolates from mechanically ventilated chronic respiratory insufficiency patient
Pseudomonas aeruginosa [8] = experiment: Antimicrobial activity against Pseudomonas aeruginosa 24E5 tracheal isolates from mechanically ventilated chronic respiratory insufficiency patient
Pseudomonas aeruginosa [9] = experiment: Antimicrobial activity against Pseudomonas aeruginosa 29G6 tracheal isolates from mechanically ventilated chronic respiratory insufficiency patient
Pseudomonas aeruginosa [10] = experiment: Antimicrobial activity against Pseudomonas aeruginosa 8C4 tracheal isolates from mechanically ventilated chronic respiratory insufficiency patient
Pseudomonas aeruginosa [11] = experiment: Antimicrobial activity against Pseudomonas aeruginosa 22E1 tracheal isolates from mechanically ventilated chronic respiratory insufficiency patient
Pseudomonas aeruginosa [12] = experiment: Antimicrobial activity against Pseudomonas aeruginosa 2A9 tracheal isolates from mechanically ventilated tuberculosis patient
Pseudomonas aeruginosa [13] = experiment: Antimicrobial activity against Pseudomonas aeruginosa 9A3 tracheal isolates from mechanically ventilated chronic respiratory insufficiency patient
Pseudomonas aeruginosa [14] = experiment: Antimicrobial activity against Pseudomonas aeruginosa 9B2 tracheal isolates from mechanically ventilated chronic respiratory insufficiency patient
Pseudomonas aeruginosa [15] = experiment: Antimicrobial activity against Pseudomonas aeruginosa 65.36-4 tracheal isolates from mechanically ventilated tuberculosis patient
Pseudomonas aeruginosa [16] = experiment: Antimicrobial activity against Pseudomonas aeruginosa 2C2 tracheal isolates from mechanically ventilated tuberculosis patient
Pseudomonas aeruginosa [17] = experiment: Antimicrobial activity against Pseudomonas aeruginosa 65.36-1 tracheal isolates from mechanically ventilated tuberculosis patient
Pseudomonas aeruginosa [18] = experiment: Antimicrobial activity against Pseudomonas aeruginosa 2C1 tracheal isolates from mechanically ventilated tuberculosis patient
Pseudomonas aeruginosa [19] = experiment: Antimicrobial activity against Pseudomonas aeruginosa 3D1 tracheal isolates from mechanically ventilated chronic respiratory insufficiency patient
Pseudomonas aeruginosa [20] = experiment: Antimicrobial activity against Pseudomonas aeruginosa 22D2 tracheal isolates from mechanically ventilated chronic respiratory insufficiency patient
Pseudomonas aeruginosa [21] = experiment: Antimicrobial activity against Pseudomonas aeruginosa 9A7 tracheal isolates from mechanically ventilated chronic respiratory insufficiency patient
Pseudomonas aeruginosa [22] = experiment: Antimicrobial activity against Pseudomonas aeruginosa P21.23 tracheal isolates from mechanically ventilated tuberculosis patient
Pseudomonas aeruginosa [23] = experiment: Antimicrobial activity against Pseudomonas aeruginosa 65.68-3 tracheal isolates from mechanically ventilated tuberculosis patient
Pseudomonas aeruginosa [24] = experiment: Antimicrobial activity against Pseudomonas aeruginosa 5F2 tracheal isolates from mechanically ventilated chronic respiratory insufficiency patient
Pseudomonas aeruginosa [25] = experiment: Antimicrobial activity against Pseudomonas aeruginosa 65.33-1 tracheal isolates from mechanically ventilated tuberculosis patient
Pseudomonas aeruginosa [26] = experiment: Antimicrobial activity against Pseudomonas aeruginosa 2A5 tracheal isolates from mechanically ventilated chronic respiratory insufficiency patient
Pseudomonas aeruginosa [27] = experiment: Antimicrobial activity against Pseudomonas aeruginosa 5G3 tracheal isolates from mechanically ventilated chronic respiratory insufficiency patient
Pseudomonas aeruginosa [28] = experiment: Antimicrobial activity against Pseudomonas aeruginosa 2A5 tracheal isolates from mechanically ventilated tuberculosis patient
Pseudomonas aeruginosa [29] = experiment: Antimicrobial activity against Pseudomonas aeruginosa 65.38-1 tracheal isolates from mechanically ventilated tuberculosis patient
Pseudomonas aeruginosa [30] = experiment: Antimicrobial activity against Pseudomonas aeruginosa 2A7 tracheal isolates from mechanically ventilated tuberculosis patient
Pseudomonas aeruginosa [31] = experiment: Antimicrobial activity against Pseudomonas aeruginosa 9B5 tracheal isolates from mechanically ventilated chronic respiratory insufficiency patient
Pseudomonas aeruginosa [32] = experiment: Antimicrobial activity against Pseudomonas aeruginosa 65.68-1 tracheal isolates from mechanically ventilated tuberculosis patient
Pseudomonas aeruginosa [33] = experiment: Antimicrobial activity against Pseudomonas aeruginosa 29G7 tracheal isolates from mechanically ventilated chronic respiratory insufficiency patient
Pseudomonas aeruginosa [34] = experiment: Antimicrobial activity against Pseudomonas aeruginosa 19B3 tracheal isolates from mechanically ventilated chronic respiratory insufficiency patient
Pseudomonas aeruginosa [35] = experiment: Antimicrobial activity against Pseudomonas aeruginosa 2A2 tracheal isolates from mechanically ventilated tuberculosis patient
Pseudomonas aeruginosa [36] = experiment: Antimicrobial activity against Pseudomonas aeruginosa 9A1 tracheal isolates from mechanically ventilated chronic respiratory insufficiency patient
Pseudomonas aeruginosa [37] = experiment: Antimicrobial activity against Pseudomonas aeruginosa 15H5 tracheal isolates from mechanically ventilated chronic respiratory insufficiency patient
Pseudomonas aeruginosa [38] = experiment: Antimicrobial activity against Pseudomonas aeruginosa 24G1 tracheal isolates from mechanically ventilated chronic respiratory insufficiency patient
Pseudomonas aeruginosa [39] = experiment: Antimicrobial activity against Pseudomonas aeruginosa 65.18-4 tracheal isolates from mechanically ventilated tuberculosis patient
Pseudomonas aeruginosa [40] = experiment: Antimicrobial activity against Pseudomonas aeruginosa 8B11 tracheal isolates from mechanically ventilated chronic respiratory insufficiency patient
Pseudomonas aeruginosa [41] = experiment: Antimicrobial activity against Pseudomonas aeruginosa 1B9 tracheal isolates from mechanically ventilated tuberculosis patient
Pseudomonas aeruginosa [42] = experiment: Antimicrobial activity against Pseudomonas aeruginosa 5F8 tracheal isolates from mechanically ventilated chronic respiratory insufficiency patient
Pseudomonas aeruginosa [43] = experiment: Antimicrobial activity against Pseudomonas aeruginosa 22D6 tracheal isolates from mechanically ventilated chronic respiratory insufficiency patient
Pseudomonas aeruginosa [44] = experiment: Antimicrobial activity against Pseudomonas aeruginosa 2A6 tracheal isolates from mechanically ventilated tuberculosis patient
Pseudomonas aeruginosa [45] = experiment: Antimicrobial activity against Pseudomonas aeruginosa 10B3 tracheal isolates from mechanically ventilated chronic respiratory insufficiency patient
Pseudomonas aeruginosa [46] = experiment: Antimicrobial activity against Pseudomonas aeruginosa 8A12 tracheal isolates from mechanically ventilated chronic respiratory insufficiency patient
Pseudomonas aeruginosa [47] = experiment: Antimicrobial activity against Pseudomonas aeruginosa 10A9 tracheal isolates from mechanically ventilated chronic respiratory insufficiency patient
Pseudomonas aeruginosa [48] = experiment: Antimicrobial activity against Pseudomonas aeruginosa 3E2 tracheal isolates from mechanically ventilated chronic respiratory insufficiency patient
Pseudomonas aeruginosa [49] = experiment: Antimicrobial activity against Pseudomonas aeruginosa 65.68-4 tracheal isolates from mechanically ventilated tuberculosis patient
Pseudomonas aeruginosa [50] = experiment: Antimicrobial activity against Pseudomonas aeruginosa 5H6 tracheal isolates from mechanically ventilated chronic respiratory insufficiency patient
Pseudomonas aeruginosa [51] = experiment: Antimicrobial activity against Pseudomonas aeruginosa 65.38-3 tracheal isolates from mechanically ventilated tuberculosis patient
Pseudomonas aeruginosa [52] = experiment: Antimicrobial activity against Pseudomonas aeruginosa 12A3 tracheal isolates from mechanically ventilated chronic respiratory insufficiency patient
Pseudomonas aeruginosa [53] = experiment: Antimicrobial activity against Pseudomonas aeruginosa 19B6 tracheal isolates from mechanically ventilated chronic respiratory insufficiency patient
Pseudomonas aeruginosa [54] = experiment: Antimicrobial activity against Pseudomonas aeruginosa 65.36-3 tracheal isolates from mechanically ventilated tuberculosis patient
Pseudomonas aeruginosa [55] = experiment: Antimicrobial activity against Pseudomonas aeruginosa 22C5 tracheal isolates from mechanically ventilated chronic respiratory insufficiency patient
Pseudomonas aeruginosa [56] = experiment: Antimicrobial activity against Pseudomonas aeruginosa 10B1 tracheal isolates from mechanically ventilated chronic respiratory insufficiency patient
Pseudomonas aeruginosa [57] = experiment: Antimicrobial activity against Pseudomonas aeruginosa 29F6 tracheal isolates from mechanically ventilated chronic respiratory insufficiency patient
Pseudomonas aeruginosa [58] = experiment: Antimicrobial activity against Pseudomonas aeruginosa 12B2 tracheal isolates from mechanically ventilated chronic respiratory insufficiency patient
Pseudomonas aeruginosa [59] = experiment: Antimicrobial activity against Pseudomonas aeruginosa 65.68-2 tracheal isolates from mechanically ventilated tuberculosis patient

CC(C)(O/N=C(\C(=O)N[C@@H]1C(=O)N2C(C(=O)[O-])=C(C[n+]3ccccc3)CS[C@H]12)c1csc(N)n1)C(=O)O
Activity (Pseudomonas aeruginosa [1]): Active
Activity (Pseudomonas aeruginosa [2]): Active
Activity (Pseudomonas aeruginosa [3]): Active
Activity (Pseudomonas aeruginosa [4]): Active
Activity (Pseudomonas aeruginosa [5]): Active
Activity (Pseudomonas aeruginosa [6]): Active
Activity (Pseudomonas aeruginosa [7]): Active
Activity (Pseudomonas aeruginosa [8]): Active
Activity (Pseudomonas aeruginosa [9]): Active
Activity (Pseudomonas aeruginosa [10]): Active
Activity (Pseudomonas aeruginosa [11]): Active
Activity (Pseudomonas aeruginosa [12]): inactive
Activity (Pseudomonas aeruginosa [13]): Active
Activity (Pseudomonas aeruginosa [14]): Active
Activity (Pseudomonas aeruginosa [15]): inactive
Activity (Pseudomonas aeruginosa [16]): Active
Activity (Pseudomonas aeruginosa [17]): Active
Activity (Pseudomonas aeruginosa [18]): inactive
Activity (Pseudomonas aeruginosa [19]): Active
Activity (Pseudomonas aeruginosa [20]): Active
Activity (Pseudomonas aeruginosa [21]): Active
Activity (Pseudomonas aeruginosa [22]): Active
Activity (Pseudomonas aeruginosa [23]): Active
Activity (Pseudomonas aeruginosa [24]): Active
Activity (Pseudomonas aeruginosa [25]): Active
Activity (Pseudomonas aeruginosa [26]): Active
Activity (Pseudomonas aeruginosa [27]): Active
Activity (Pseudomonas aeruginosa [28]): Active
Activity (Pseudomonas aeruginosa [29]): inactive
Activity (Pseudomonas aeruginosa [30]): inactive
Activity (Pseudomonas aeruginosa [31]): Active
Activity (Pseudomonas aeruginosa [32]): Active
Activity (Pseudomonas aeruginosa [33]): Active
Activity (Pseudomonas aeruginosa [34]): Active
Activity (Pseudomonas aeruginosa [35]): Active
Activity (Pseudomonas aeruginosa [36]): Active
Activity (Pseudomonas aeruginosa [37]): Active
Activity (Pseudomonas aeruginosa [38]): Active
Activity (Pseudomonas aeruginosa [39]): Active
Activity (Pseudomonas aeruginosa [40]): Active
Activity (Pseudomonas aeruginosa [41]): inactive
Activity (Pseudomonas aeruginosa [42]): Active
Activity (Pseudomonas aeruginosa [43]): Active
Activity (Pseudomonas aeruginosa [44]): inactive
Activity (Pseudomonas aeruginosa [45]): Active
Activity (Pseudomonas aeruginosa [46]): Active
Activity (Pseudomonas aeruginosa [47]): Active
Activity (Pseudomonas aeruginosa [48]): Active
Activity (Pseudomonas aeruginosa [49]): Active
Activity (Pseudomonas aeruginosa [50]): Active
Activity (Pseudomonas aeruginosa [51]): inactive
Activity (Pseudomonas aeruginosa [52]): Active
Activity (Pseudomonas aeruginosa [53]): Active
Activity (Pseudomonas aeruginosa [54]): Active
Activity (Pseudomonas aeruginosa [55]): Active
Activity (Pseudomonas aeruginosa [56]): Active
Activity (Pseudomonas aeruginosa [57]): Active
Activity (Pseudomonas aeruginosa [58]): Active
Activity (Pseudomonas aeruginosa [59]): Active

C[C@@H](O)[C@H]1C(=O)N2C(C(=O)O)=C(SCCNC=N)C[C@H]12
Activity (Pseudomonas aeruginosa [1]): Active
Activity (Pseudomonas aeruginosa [2]): Active
Activity (Pseudomonas aeruginosa [3]): inactive
Activity (Pseudomonas aeruginosa [4]): Active
Activity (Pseudomonas aeruginosa [5]): Active
Activity (Pseudomonas aeruginosa [6]): Active
Activity (Pseudomonas aeruginosa [7]): Active
Activity (Pseudomonas aeruginosa [8]): Active
Activity (Pseudomonas aeruginosa [9]): Active
Activity (Pseudomonas aeruginosa [10]): Active
Activity (Pseudomonas aeruginosa [11]): Active
Activity (Pseudomonas aeruginosa [12]): inactive
Activity (Pseudomonas aeruginosa [13]): Active
Activity (Pseudomonas aeruginosa [14]): Active
Activity (Pseudomonas aeruginosa [15]): inactive
Activity (Pseudomonas aeruginosa [16]): inactive
Activity (Pseudomonas aeruginosa [17]): inactive
Activity (Pseudomonas aeruginosa [18]): inactive
Activity (Pseudomonas aeruginosa [19]): Active
Activity (Pseudomonas aeruginosa [20]): Active
Activity (Pseudomonas aeruginosa [21]): Active
Activity (Pseudomonas aeruginosa [22]): Active
Activity (Pseudomonas aeruginosa [23]): inactive
Activity (Pseudomonas aeruginosa [24]): Active
Activity (Pseudomonas aeruginosa [25]): inactive
Activity (Pseudomonas aeruginosa [26]): Active
Activity (Pseudomonas aeruginosa [27]): Active
Activity (Pseudomonas aeruginosa [28]): Active
Activity (Pseudomonas aeruginosa [29]): inactive
Activity (Pseudomonas aeruginosa [30]): inactive
Activity (Pseudomonas aeruginosa [31]): Active
Activity (Pseudomonas aeruginosa [32]): inactive
Activity (Pseudomonas aeruginosa [33]): Active
Activity (Pseudomonas aeruginosa [34]): Active
Activity (Pseudomonas aeruginosa [35]): inactive
Activity (Pseudomonas aeruginosa [36]): Active
Activity (Pseudomonas aeruginosa [37]): Active
Activity (Pseudomonas aeruginosa [38]): Active
Activity (Pseudomonas aeruginosa [39]): inactive
Activity (Pseudomonas aeruginosa [40]): Active
Activity (Pseudomonas aeruginosa [41]): inactive
Activity (Pseudomonas aeruginosa [42]): Active
Activity (Pseudomonas aeruginosa [43]): Active
Activity (Pseudomonas aeruginosa [44]): inactive
Activity (Pseudomonas aeruginosa [45]): Active
Activity (Pseudomonas aeruginosa [46]): Active
Activity (Pseudomonas aeruginosa [47]): Active
Activity (Pseudomonas aeruginosa [48]): Active
Activity (Pseudomonas aeruginosa [49]): inactive
Activity (Pseudomonas aeruginosa [50]): Active
Activity (Pseudomonas aeruginosa [51]): inactive
Activity (Pseudomonas aeruginosa [52]): Active
Activity (Pseudomonas aeruginosa [53]): Active
Activity (Pseudomonas aeruginosa [54]): inactive
Activity (Pseudomonas aeruginosa [55]): Active
Activity (Pseudomonas aeruginosa [56]): Active
Activity (Pseudomonas aeruginosa [57]): Active
Activity (Pseudomonas aeruginosa [58]): Active
Activity (Pseudomonas aeruginosa [59]): inactive
